How the values were obtained:
Experiment in all cases: relative viability (nuclei count vs DMSO), 5 days (fraction); higher = more cells survive
[1] = compound: CN1CCC(CNc2ccc3ncc(-c4cccc(OC(F)(F)F)c4)n3n2)CC1 [SGI-1776] + CCNC(=O)c1noc(-c2cc(C(C)C)c(O)cc2O)c1-c1ccc(CN2CCOCC2)cc1 [Luminespib] (partner 0.01 µM)
In short: (§1)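 One day after seeding in 1536-well plates, lung cancer cell lines were dosed by pin tool. Dosing was either single-drug or a fixed anchor-drug dose plus five library-drug doses (not always all listed) in √10 steps. After 5 days, nuclei were stained in one fix-and-stain step and counted on 4× images, and relative viability is the nuclei count of treated wells over that of vehicle wells, given as the median of duplicate plates.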

[2] = compound: CN1CCC(CNc2ccc3ncc(-c4cccc(OC(F)(F)F)c4)n3n2)CC1 [SGI-1776] + CC(C)C[C@H](NC(=O)[C@H](Cc1ccccc1)NC(=O)c1cnccn1)B(O)O [Bortezomib] (partner 0.002 µM)
In short: as §1

[3] = compound: Nc1ccccc1NC(=O)c1ccc(CNC(=O)OCc2cccnc2)cc1 [Entinostat] + CCNC(=O)c1noc(-c2cc(C(C)C)c(O)cc2O)c1-c1ccc(CN2CCOCC2)cc1 [Luminespib] (partner 0.01 µM)
In short: as §1

[4] = compound: C1COCCN1C2=NC(=NC3=C2OC4=C3C=CC=N4)C5=CC(=CC=C5)NC(=O)C6=CN=C(C=C6)N + Nc1nc2[nH]cc(CCc3ccc(C(=O)N[C@@H](CCC(=O)O)C(=O)O)cc3)c2c(=O)[nH]1 [Pemetrexed] (partner 0.2 µM)
In short: as §1

Cell Line	relative viability ([1]; first compound 0.08 µM)	relative viability ([1]; first compound 0.8 µM)	relative viability ([1]; first compound 2.53 µM)	relative viability ([1]; first compound 8 µM)	relative viability ([2]; first compound 0.08 µM)	relative viability ([2]; first compound 0.8 µM)	relative viability ([2]; first compound 2.53 µM)	relative viability ([2]; first compound 8 µM)	relative viability ([3]; first compound 0.02 µM)	relative viability ([3]; first compound 0.06325 µM)	relative viability ([3]; first compound 0.2 µM)	relative viability ([3]; first compound 0.6325 µM)	relative viability ([3]; first compound 2 µM)	relative viability ([4]; first compound 0.02 µM)	relative viability ([4]; first compound 0.06325 µM)	relative viability ([4]; first compound 0.2 µM)	relative viability ([4]; first compound 0.6325 µM)	relative viability ([4]; first compound 2 µM)
201T	1.04	1.09	1.05	1.03	1.09	1.08	1.11	0.986	1.03	1.04	0.995	0.925	0.747	0.285	0.301	0.307	0.38	0.34
A-427	0.915	0.856	0.755	0.869	1.04	1.03	0.931	0.749	1.01	1.03	0.83	0.651	0.582	1	0.985	0.944	0.914	0.739
ABC-1	0.308	0.577	0.52	0.51	0.299	0.323	0.364	0.241	0.661	0.49	0.609	0.555	0.358					
BEN	0.434	0.39	1.1	0.475	0.909	0.918	0.754	0.624	0.217	0.32	0.263	0.472	0.349	0.737	0.795	0.584	0.693	0.665
CAL-12T	0.331	0.394	0.452	0.519	1.35	0.982	0.918	0.867	0.502	0.402	0.459	0.461	0.364	1.2	1.27	1.17	1.32	0.412
COR-L23	0.702	0.68	0.743	0.511	1.13	0.937	0.971	0.846	0.697	0.535	0.49	0.296	0.108	0.202	0.204	0.194	0.162	0.167
COR-L 105	0.741	0.713	0.691	0.834	0.929	0.833	0.587	0.282	0.803	0.749	0.72	0.561	0.345	1.13	1.25	0.967	1.16	0.642
Calu-6					0.954	1.06	0.954	0.658										
ChaGo-K-1	0.586	0.51	0.706	0.556	0.982	1.22	0.644	0.785	0.765	0.523	0.487	0.596	0.503	0.271	0.256	0.251	0.237	0.237
EBC-1					0.6	0.548	0.514	0.304										
EKVX	0.868	0.937	0.875	0.863	0.98	1.05	1.14	0.972	0.986	0.913	0.794	0.801	0.427	0.436	0.396	0.486	0.382	0.323
EMC-BAC-2	1.2	1.27	1.26	1.11	1.06	1.01	1.1	1.04	1.15	1.15	1.02	0.768	0.529	0.458	0.462	0.465	0.462	0.444
EPLC-272H	0.402	0.536	0.501	0.2	0.939	1.06	0.927	0.739	0.209	0.187	0.31	0.262	0.264	0.301	0.318	0.272	0.298	0.319
H3255	0.988	1.1	0.894	0.665	0.963	0.75	0.606	0.33	1.02	0.954	0.652	0.613	0.321	0.507	0.558	0.528	0.524	0.491
HARA	0.862	0.67	0.67	0.0476	1.2	1.21	1.01	1.05	0.534	0.732	0.752	0.584	0.201	0.253	0.261	0.204	0.246	0.141
HCC-15	0.353	0.34	0.325	0.186	1.03	1.03	1.02	0.886	0.352	0.301	0.261	0.359	0.257	0.225	0.228	0.217	0.218	0.242

From the supplement of paper PMC10307832
